Reference: patent publication US20170183306A1, “CYCLIC COMPOUNDS HAVING A 1,3 DIAMINO-FUNCTIONALITY FOR USE IN THE TREATMENT OF HIV INFECTION” (Universite Paris Descartes, priority 2014, published 2017)

Tests used:
[1] = in vivo; cited from earlier work
[2] = system: Laï virus in MT2 cells (human lymphocytic cell line); test: MT2 cells infected with Laï virus, real-time PCR of viral RNA of the supernatant; type: cell-based, HIV-1; conditions: for viral RNA of the supernatant, 10 μM / viral RNA of the supernatant, 25 μM / viral RNA of the supernatant, 50 μM / viral RNA of the supernatant, 100 μM: 3 days of culture, control = virus without any added compound; for viral replication in human lymphocytes (in words): summary of Table 3
Experimental: In an experiment, MT2 cells (human lymphocytic cell line) are infected with the Laï virus to a multiplicity of infection of 0.3 and incubated with compounds A, B, C or D at four different concentrations.
After 3 days of culture, real-time PCR quantification of the viral RNA of the supernatant is performed (COBAS Ampliprep/COBAS TaqMan HIV-1 assay, version 2).
The results are expressed as percentage of control (virus without any added compound) in Table 3.

[3] = system: J-Lat cells; test: J-Lat cells, percentage of GFP-positive cells by cytometry; type: cell-based; conditions: 24 h, compound alone
Summary of the method: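 J-Lat cells (5.105 per well, RPMI/10% FBS) treated 24 h with compound alone at 37 °C. After PFA fixation, GFP-positive cells counted by flow cytometry and reported as percentage of living fluorescent cells.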

[4] = system: wild type NL4-3 virus (HIV-1) in HeLa-p4 cells; test: HeLa-p4 single-cycle HIV-1 infectivity, beta-galactosidase CPRG test; type: cell-based; conditions: Human immunodeficiency virus 1, NL43, HeLaP4, 48 hours after infection, control = NL4-3 virus alone; for activity at 50 µM: read-out: Hela-p4 CPRG 50 μM; for activity at 100 µM: read-out: Hela-p4 CPRG 100 μM
Summary of the method: (§1)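 HeLa CD4 LTR-LacZ cells infected with 1 ng p24 of wild-type NL4-3 alongside graded compound concentrations; β-galactosidase measured 48 h post-infection by CPRG colorimetry, expressed as percent of untreated virus control. Viability assessed by MTS absorbance at […].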

[5] = system: HeLa-p4 cells; test: Cell viability assay (MTS) on HeLa-p4 cells; type: cell-based; conditions: cell viability
Summary of the method: as §1

Row | SMILES | adverse effects in clinical trials [1] | viral RNA of the supernatant, 10 μM [2] | viral RNA of the supernatant, 25 μM [2] | viral RNA of the supernatant, 50 μM [2] | viral RNA of the supernatant, 100 μM [2] | viral replication in human lymphocytes (in words) [2] | J-lat 50 μM [3] | activity at 50 µM [4] | activity at 100 µM [4] | Hela-p4 MTS 50 μM [5] | Hela-p4 MTS 100 μM [5] | activity at 200 µM [4] | Hela-p4 MTS 200 μM [5] | J-lat 100 μM [3]
1 | Cc1[nH]c2ccccc2c1CCNCc1ccc(/C=C/C(=O)NO)cc1 [LBH589] | important adverse effects |  |  |  |  |  |  |  |  |  |  |  |  | 
2 | COC(=O)C(Cc1ccccc1)N1C[C@H](N)C[C@H](N)C1 (stereo partly shown) [Compound B] |  | 420 percentage of control | 40 percentage of control | 70 percentage of control | 32400 percentage of control | induce viral replication at an extremely high level |  |  |  |  |  |  |  | 
3 | CC(C)(C)OC(=O)N[C@@H]1C[C@H](NC(=O)OC(C)(C)C)CN(Cc2ccccc2)C1 [ECO02-056-C, di-tert-butyl (1-benzylpiperidine-3,5-diyl)dicarbamate] |  |  |  |  |  |  | 1.6 percentage of the living fluorescent cells | 100% | 79% | 67 | 38 |  |  | 
4 | COc1cccc(CCN2C[C@H](NC(=O)OC(C)(C)C)C[C@H](NC(=O)OC(C)(C)C)C2)c1 [ECO03-03-C, di-tert-butyl (1-(3-methoxyphenethyl)piperidine-3,5-diyl)dicarbamate] |  |  |  |  |  |  | 0.4 percentage of the living fluorescent cells | 148% | 341% | 105 | 104 | 440% | 104 | 
5 | COc1cccc(CCN2C[C@@H](N)C[C@@H](NS(C)(=O)=O)C2)c1 (racemic) [ECO02-073-C, rac-cis-N-(5-amino-1-(3-methoxyphenethyl)piperidin-3-yl) methanesulfonamide] |  |  |  |  |  |  | 0.8 percentage of the living fluorescent cells | 151% | 205% | 100 | 99 | 417% | 79 | 
6 | CC(C)(C)OC(=O)N[C@@H]1C[C@H](NC(=O)OC(C)(C)C)CN(Cc2ccco2)C1 [ECO02-058-C, di-tert-butyl (1-(furan-2-ylmethyl)piperidine-3,5-diyl)dicarbamate] |  |  |  |  |  |  | 1.4 percentage of the living fluorescent cells | 110% | 159% | 105 | 88 | 194% | 87 | 
7 | N[C@@H]1C[C@H](N)CN(c2ccc(NC(=O)c3ccccc3)cc2)C1 [ECO03-002-C, N-(4-(3,5-diaminopiperidin-1-yl)phenyl)benzamide] |  |  |  |  |  |  | 0.5 percentage of the living fluorescent cells | 120% | 165% | 115 | 116 | 317% | 74 | 
8 | COc1ccc(CCN2C[C@H](N3C[C@H](N)C[C@H](N)C3)C[C@H](N3C[C@H](N)C[C@H](N)C3)C2)cc1OC [AB-103, (3S,3′R,3″S,5R,5′S,5″R)-1′-(3,4-dimethoxyphenethyl)-[1,3′:5′,1″-terpiperidine]-3,3″,5,5″-tetraamine] |  |  |  |  |  |  | 0.2 percentage of the living fluorescent cells | 125% | 143% | 83 | 84 |  |  | 0.4 percentage of the living fluorescent cells
9 | N[C@@H]1C[C@H](N)CN(c2ccc(NC(=O)c3ccccc3)c(O)c2)C1 [Compound C] |  | 21200 percentage of control | 83500 percentage of control | 66400 percentage of control | 931700 percentage of control | induce viral replication at an extremely high level |  |  |  |  |  |  |  | 
10 | CN(C)c1ccc(CN2C[C@H](NC(=O)OC(C)(C)C)C[C@H](NC(=O)OC(C)(C)C)C2)cc1 [ECO02-062-C] |  |  |  |  |  |  | 0.7 percentage of the living fluorescent cells | 239% | 269% | 91 | 84 | 401% | 73 | 
11 | N[C@@H]1C[C@H](N)CN(c2ccccc2)C1 [ECO01-037-C, 1-phenylpiperidine-3,5-diamine] |  |  |  |  |  |  | 0.6 percentage of the living fluorescent cells | 103% | 103% | 97 | 106 |  |  | 0.2 percentage of the living fluorescent cells
12 | Cc1ccccc1CCN1C[C@H](N)C[C@H](N)C1 [ECO01-028-C, 1-(2-methylphenethyl)piperidine-3,5-diamine] |  |  |  |  |  |  | 0.1 percentage of the living fluorescent cells | 108% | 113% | 91 | 94 |  |  | 0 percentage of the living fluorescent cells
13 | CC(C)(C)OC(=O)N[C@@H]1C[C@H](NC(=O)OC(C)(C)C)CN(S(=O)(=O)c2ccccc2)C1 [ECO02-081-C, di-tert-butyl (1-(phenylsulfonyl)piperidine-3,5-diyl)dicarbamate] |  |  |  |  |  |  | 0.8 percentage of the living fluorescent cells | 196% | 207% | 91 | 69 | 279% | 77 | 
14 | N[C@@H]1C[C@H](N)CN(CCCCc2ccccc2)C1 [ECO02-026-C, 1-(4-phenylbutyl)piperidine-3,5-diamine] |  |  |  |  |  |  | 65.0 percentage of the living fluorescent cells | 30% | 31% | 26 | 26 |  |  | 
15 | N[C@@H]1C[C@H](N)CN(c2cccc(C(=O)Nc3ccccc3)c2)C1 [ECO02-003-C, 3-(3,5-diaminopiperidin-1-yl)-N-phenylbenzamide] |  |  |  |  |  |  | 0.4 percentage of the living fluorescent cells | 140% | 118% | 105 | 60 |  |  | 0.5 percentage of the living fluorescent cells
16 | COc1ccc(CCN2C[C@H](N)C[C@H](N)C2)cc1OC [Compound A] |  | 130 percentage of control | 60 percentage of control | 50 percentage of control | 73200 percentage of control | induce viral replication at an extremely high level |  |  |  |  |  |  |  | 
17 | COc1cccc(CCN2C[C@H](N)C[C@H](N)C2)c1 [ECO01-026-C2, 1-(3-methoxyphenethyl)piperidine-3,5-diamine] |  |  |  |  |  |  | 3.3 percentage of the living fluorescent cells | 116% | 169% | 106 | 98 | 234% | 72 | 
18 | N[C@@H]1C[C@H](N)CN(S(=O)(=O)c2ccccc2)C1 [ECO03-001-B, 1-(phenylsulfonyl)piperidine-3,5-diamine] |  |  |  |  |  |  | 0.6 percentage of the living fluorescent cells | 118% | 170% | 97 | 104 | 360% | 109 | 
